Drawing on patent US11446287B2, “Compounds and methods for EP300 or CBP modulation and indications therefor” (Opna Immuno-Oncology SA, priority 2019, dated 2022), this text covers IC50 for 28 molecules.

The test has as its target T1, Recombinant human EP300 containing the bromodomain (EP300-BD (1040-1161)) (Homo sapiens, UniProt Q09472).
T1 construct: Recombinant human EP300 bromodomain (EP300-BD (1040-1161)); made in house; host or cells: E. coli BL21-CodonPlus (DE3), modified pET vector
T1 sequence (Q09472 1040-1161): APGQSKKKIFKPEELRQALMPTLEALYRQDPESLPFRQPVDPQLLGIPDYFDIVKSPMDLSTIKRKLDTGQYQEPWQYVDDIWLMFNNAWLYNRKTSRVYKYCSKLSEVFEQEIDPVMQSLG
Description: EP300 Alphascreen binding assay. In a few lines: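 Displacement of a biotinylated acetyl-K56 histone H3 peptide from the N-His bromodomain construct (1040-1161) measured by AlphaScreen proximity, beads at 7.5 μg/ml final, read 60 min after addition. Protein, peptide and compound first incubated 1 h at room temperature, pH 7.5 HEPES buffer; IC50 by four-parameter logistic fit.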
Background: Alpha assays give light when donor and acceptor beads are brought close together.

For orientation: IC50 means the concentration needed to halve the response being measured. For `CCOc1cc(C(=O)O)cc(OCC)c1-n1cc(-c2cnn(CC3CC3)c2)c2ncc(-c3c(C)noc3C)cc21` [P-0264, 4-(3-(1-(cyclopropylmethyl)-1H-pyrazol-4-yl)-6-(3,5-dimethylisoxazol-4-yl)-1H-pyrrolo[3,2-b]pyridin-1-yl)-3,5-diethoxybenzoic acid], the IC50 was in the range of 0.1 to 1000 nM.

On to `CCOc1cc(C(=O)O)cc(OCC)c1-n1cc(-c2cnn(C3CC3)c2)c2ncc(-c3c(C)noc3C)cc21` [P-0265, 4-(3-(1-cyclopropyl-1H-pyrazol-4-yl)-6-(3,5-dimethylisoxazol-4-yl)-1H-pyrrolo[3,2-b]pyridin-1-yl)-3,5-diethoxybenzoic acid], for which the IC50 was 0.1 to 1000 nM.

`CCOc1cc(C(=O)O)cc(OCC)c1-n1cc(-c2cnn(CCC#N)c2)c2ncc(-c3c(C)noc3C)cc21` [P-0266, 4-(3-(1-(2-cyanoethyl)-1H-pyrazol-4-yl)-6-(3,5-dimethylisoxazol-4-yl)-1H-pyrrolo[3,2-b]pyridin-1-yl)-3,5-diethoxybenzoic acid]: the IC50 is 0.1 to 1000 nM.

For `CCOc1cc(C(=O)O)cc(OCC)c1-n1cc(-c2cnn(CC(=O)N(C)C)c2)c2ncc(-c3c(C)noc3C)cc21` [P-0267, 4-(3-(1-(2-(dimethylamino)-2-oxoethyl)-1H-pyrazol-4-yl)-6-(3,5-dimethylisoxazol-4-yl)-1H-pyrrolo[3,2-b]pyridin-1-yl)-3,5-diethoxybenzoic acid], the IC50 was 0.1 to 1000 nM.

Take `Cc1noc(C)c1-c1cnc2c(c1)c(-c1cc(C(=O)O)ccc1OC(F)(F)F)cn2-c1ccc(F)cc1F` [P-0268, 3-(1-(2,4-difluorophenyl)-5-(3,5-dimethylisoxazol-4-yl)-1H-pyrrolo[2,3-b]pyridin-3-yl)-4-(trifluoromethoxy)benzoic acid]: the IC50 lay within 0.1 to 1000 nM.

In the case of `Cc1noc(C)c1-c1cnc2c(-c3ccc(F)cc3F)cn(-c3c(OC(C)C)cc(C(=O)O)cc3OC(C)C)c2c1` [P-0269, 4-(3-(2,4-difluorophenyl)-6-(3,5-dimethylisoxazol-4-yl)-1H-pyrrolo[3,2-b]pyridin-1-yl)-3,5-diisopropoxybenzoic acid], the IC50 was in the range of 0.1 to 1000 nM.

For the molecule `CCOc1cc(C(=O)O)cc(OCC)c1-n1cc(CC2CCC2)c2ncc(-n3c(C)nnc3C)cc21` [P-0270, 4-(3-(cyclobutylmethyl)-6-(3,5-dimethyl-4H-1,2,4-triazol-4-yl)-1H-pyrrolo[3,2-b]pyridin-1-yl)-3,5-diethoxybenzoic acid], the IC50 fell in the range of 1000 to 8000 nM.

For the molecule `CCOc1cc(C(=O)O)cc(OCC)c1-n1cc(C2CCC(F)(F)CC2)c2ncc(-c3c(C)noc3C)cc21` [P-0271, 4-(3-(4,4-difluorocyclohexyl)-6-(3,5-dimethylisoxazol-4-yl)-1H-pyrrolo[3,2-b]pyridin-1-yl)-3,5-diethoxybenzoic acid], the 50% inhibitory concentration (IC50) was in the range of 0.1 to 1000 nM.

As for `Cc1noc(C)c1-c1cnc2c(c1)c(-c1cnn(CC(=O)O)c1)cn2-c1ncccc1C#CC1CC1` [P-0272, 2-(4-(1-(3-(cyclopropylethynyl)pyridin-2-yl)-5-(3,5-dimethylisoxazol-4-yl)-1H-pyrrolo[2,3-b]pyridin-3-yl)-1H-pyrazol-1-yl)acetic acid], the IC50 lay in the range of 0.1 to 1000 nM.

`Cc1noc(C)c1-c1cnc2c(c1)c(-c1ccc(C(=O)O)cc1OC(F)F)cn2-c1ccccc1` [P-0273, 3-(difluoromethoxy)-4-(5-(3,5-dimethylisoxazol-4-yl)-1-phenyl-1H-pyrrolo[2,3-b]pyridin-3-yl)benzoic acid]: the IC50 lay in the range of 0.1 to 1000 nM.

On to `Cc1noc(C)c1-c1cnc2c(-c3ccccc3)cn(-c3cc(C(=O)O)ccc3OC(F)(F)F)c2c1` [P-0274, 3-(6-(3,5-dimethylisoxazol-4-yl)-3-phenyl-1H-pyrrolo[3,2-b]pyridin-1-yl)-4-(trifluoromethoxy)benzoic acid], for which the IC50 was 0.1 to 1000 nM.

With `Cc1noc(C)c1-c1cnc2c(c1)c(-c1ccc(C(=O)O)cc1OC(C)C)cn2-c1ccccc1` [P-0275, 4-(5-(3,5-dimethylisoxazol-4-yl)-1-phenyl-1H-pyrrolo[2,3-b]pyridin-3-yl)-3-isopropoxybenzoic acid], the IC50 lay in the range of 0.1 to 1000 nM.

Turning to `Cc1noc(C)c1-c1cnc2c(c1)c(-c1ccc(C(=O)O)cc1OC1CCC1)cn2-c1ccccc1` [P-0276, 3-cyclobutoxy-4-(5-(3,5-dimethylisoxazol-4-yl)-1-phenyl-1H-pyrrolo[2,3-b]pyridin-3-yl)benzoic acid], the IC50 lay within 0.1 to 1000 nM.

For the molecule `Cc1noc(C)c1-c1cnc2c(c1)c(-c1ccc(C(=O)O)cc1OCC(F)F)cn2-c1ccccc1` [P-0277, 3-(2,2-difluoroethoxy)-4-(5-(3,5-dimethylisoxazol-4-yl)-1-phenyl-1H-pyrrolo[2,3-b]pyridin-3-yl)benzoic acid], the IC50 is 0.1 to 1000 nM.

Turning to `Cc1noc(C)c1-c1cnc2c(c1)c(-c1ccc(C(=O)O)cc1OCC(F)(F)F)cn2-c1ccccc1` [P-0278, 4-(5-(3,5-dimethylisoxazol-4-yl)-1-phenyl-1H-pyrrolo[2,3-b]pyridin-3-yl)-3-(2,2,2-trifluoroethoxy)benzoic acid], the 50% inhibitory concentration (IC50) was 0.1 to 1000 nM.

Take `Cc1noc(C)c1-c1cnc2c(c1)c(-c1ccc(C(=O)O)cc1OC(F)(F)F)cn2-c1ccc(F)cc1` [P-0279, 4-(5-(3,5-dimethylisoxazol-4-yl)-1-(4-fluorophenyl)-1H-pyrrolo[2,3-b]pyridin-3-yl)-3-(trifluoromethoxy)benzoic acid]: the IC50 lay within 0.1 to 1000 nM.

In the case of `Cc1noc(C)c1-c1cnc2c(c1)c(-c1cnn(CC(=O)O)c1)cn2C(C1CC1)C1CC1` [P-0280, 2-(4-(1-(dicyclopropylmethyl)-5-(3,5-dimethylisoxazol-4-yl)-1H-pyrrolo[2,3-b]pyridin-3-yl)-1H-pyrazol-1-yl)acetic acid], the half-inhibitory concentration (IC50) fell in the range of 0.1 to 1000 nM.

Consider `Cc1noc(C)c1-c1cnc2c(c1)c(-c1ccc(C(=O)O)cc1OC(F)(F)F)cn2-c1cnc(N2CCC2)nc1` [P-0281, 4-(1-(2-(azetidin-1-yl)pyrimidin-5-yl)-5-(3,5-dimethylisoxazol-4-yl)-1H-pyrrolo[2,3-b]pyridin-3-yl)-3-(trifluoromethoxy)benzoic acid], for which the IC50 lay within 0.1 to 1000 nM.

Turning to `Cc1noc(C)c1-c1cnc2c(c1)c(-c1ccc(C(=O)O)cc1OC(F)(F)F)cn2-c1ccc(S(C)(=O)=O)cc1` [P-0282, 4-(5-(3,5-dimethylisoxazol-4-yl)-1-(4-(methylsulfonyl)phenyl)-1H-pyrrolo[2,3-b]pyridin-3-yl)-3-(trifluoromethoxy)benzoic acid], the IC50 lay in the range of 0.1 to 1000 nM.

With `Cc1noc(C)c1-c1cnc2c(c1)c(-c1c(Cl)cc(C(=O)O)cc1OC(C)C)cn2C(C1CC1)C1CC1` [P-0283, 3-chloro-4-(1-(dicyclopropylmethyl)-5-(3,5-dimethylisoxazol-4-yl)-1H-pyrrolo[2,3-b]pyridin-3-yl)-5-isopropoxybenzoic acid], the IC50 is 0.1 to 1000 nM.

Regarding `Cc1noc(C)c1-c1cnc2c(c1)c(-c1cc(C(=O)O)ccc1OC(F)(F)F)cn2C(C1CC1)C1CC1` [P-0284, 3-(1-(dicyclopropylmethyl)-5-(3,5-dimethylisoxazol-4-yl)-1H-pyrrolo[2,3-b]pyridin-3-yl)-4-(trifluoromethoxy)benzoic acid], the half-maximal inhibitory concentration (IC50) was in the range of 0.1 to 1000 nM.

With `Cc1noc(C)c1-c1cnc2c(c1)c(-c1ccc(C(=O)O)cc1OC(F)(F)F)cn2[C@H]1CCOC1` [P-0285, (S)-4-(5-(3,5-dimethylisoxazol-4-yl)-1-(tetrahydrofuran-3-yl)-1H-pyrrolo[2,3-b]pyridin-3-yl)-3-(trifluoromethoxy)benzoic acid], the IC50 fell in the range of 0.1 to 1000 nM.

For the molecule `Cc1noc(C)c1-c1cnc2c(c1)c(-c1ccc(C(=O)O)cc1OC(F)(F)F)cn2[C@@H]1CCOC1` [P-0286, (R)-4-(5-(3,5-dimethylisoxazol-4-yl)-1-(tetrahydrofuran-3-yl)-1H-pyrrolo[2,3-b]pyridin-3-yl)-3-(trifluoromethoxy)benzoic acid], the IC50 lay in the range of 0.1 to 1000 nM.

Take `CCn1cc(-n2cc(-c3ccc(C(=O)O)cc3OC(F)(F)F)c3cc(-c4c(C)noc4C)cnc32)c(C)n1` [P-0287, 4-(5-(3,5-dimethylisoxazol-4-yl)-1-(1-ethyl-3-methyl-1H-pyrazol-4-yl)-1H-pyrrolo[2,3-b]pyridin-3-yl)-3-(trifluoromethoxy)benzoic acid]: the IC50 fell in the range of 0.1 to 1000 nM.

`Cc1nn(C(F)F)cc1-n1cc(-c2ccc(C(=O)O)cc2OC(F)(F)F)c2cc(-c3c(C)noc3C)cnc21` [P-0288, 4-(1-(1-(difluoromethyl)-3-methyl-1H-pyrazol-4-yl)-5-(3,5-dimethylisoxazol-4-yl)-1H-pyrrolo[2,3-b]pyridin-3-yl)-3-(trifluoromethoxy)benzoic acid]: the IC50 lay in the range of 0.1 to 1000 nM.

On to `Cc1noc(C)c1-c1cnc2c(c1)c(-c1ccc(C(=O)O)cc1OC(F)(F)F)cn2-c1cnn(C(F)F)c1C` [P-0289, 4-(1-(1-(difluoromethyl)-5-methyl-1H-pyrazol-4-yl)-5-(3,5-dimethylisoxazol-4-yl)-1H-pyrrolo[2,3-b]pyridin-3-yl)-3-(trifluoromethoxy)benzoic acid], for which the IC50 fell in the range of 0.1 to 1000 nM.

Consider `Cc1noc(C)c1-c1cnc2c(c1)c(-c1ccc(C(=O)O)cc1OC(F)(F)F)cn2C1CCNCC1` [P-0290, 4-(5-(3,5-dimethylisoxazol-4-yl)-1-(piperidin-4-yl)-1H-pyrrolo[2,3-b]pyridin-3-yl)-3-(trifluoromethoxy)benzoic acid], for which the IC50 fell in the range of 0.1 to 1000 nM.

As for `CC(=O)N1CCC(n2cc(-c3ccc(C(=O)O)cc3OC(F)(F)F)c3cc(-c4c(C)noc4C)cnc32)CC1` [P-0291, 4-(1-(1-acetylpiperidin-4-yl)-5-(3,5-dimethylisoxazol-4-yl)-1H-pyrrolo[2,3-b]pyridin-3-yl)-3-(trifluoromethoxy)benzoic acid], the IC50 was 0.1 to 1000 nM.
